Measurements as given in article PMC7191558, “Use of BODIPY-Labeled ATP Analogues in the Development and Validation of a Fluorescence Polarization-Based Assay for Screening of Kinase Inhibitors” (ACS Omega, 2020).

Target: T1, Protein Kinase A catalytic subunit (PKA) (Bos taurus, UniProt P00517)
T1 construct: gene PRKACA; catalytic subunit (from bovine heart, Merck)
Assay: fluorescence polarization competition with BODIPY FL ATP-γ-S
Format: binding

IC50: ~1.13 mM
SMILES: CC1CNCCN1S(=O)(=O)c1cccc2cnccc12 (stereo not shown) [H7]
